Data from ChEMBL document CHEMBL3124752, “Small molecule disruptors of the glucokinase-glucokinase regulatory protein interaction: 1. Discovery of a novel tool compound for in vivo proof-of-concept” (J Med Chem, 2014).
pEC50: −log10 of the molar value. Blank lines part the entries; values can stand above or below the compound they belong to.

What was measured:
[1] = molecular target: T1, Hexokinase-4 (Homo sapiens, UniProt P35557); assay: Activation of human glucokinase
T1 sequence (P35557 whole entry): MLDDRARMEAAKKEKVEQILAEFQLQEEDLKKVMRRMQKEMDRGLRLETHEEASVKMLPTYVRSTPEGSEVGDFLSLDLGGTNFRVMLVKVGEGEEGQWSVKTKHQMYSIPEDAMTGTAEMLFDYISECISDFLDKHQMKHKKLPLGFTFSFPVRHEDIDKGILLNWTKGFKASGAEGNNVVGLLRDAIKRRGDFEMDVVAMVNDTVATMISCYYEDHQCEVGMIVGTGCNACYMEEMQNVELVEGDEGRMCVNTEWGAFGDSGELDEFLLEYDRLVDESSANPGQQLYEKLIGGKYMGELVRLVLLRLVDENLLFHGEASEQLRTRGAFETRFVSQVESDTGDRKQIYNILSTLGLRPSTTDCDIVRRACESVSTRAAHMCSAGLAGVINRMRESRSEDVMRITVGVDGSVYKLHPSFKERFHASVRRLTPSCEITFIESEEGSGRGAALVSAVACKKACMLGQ

[2] = species: Rattus norvegicus; assay: fCmax in Sprague-Dawley rat; type: ADME, organism-based; details: in vivo
[3] = Fraction unbound in Sprague-Dawley rat plasma at 2 mg/kg, iv and 10 mg/kg, po; type: ADME, organism-based; details: other: intravenous and oral
[4] = species: Rattus norvegicus; assay: Toxicity in Zucker diabetic fatty rat assessed as change in plasma triglyceride level; type: organism-based; details: in vivo
[5] = Intrinsic clearance in Sprague-Dawley rat liver microsomes at 1 uM after 30 mins in presence of NADPH; type: ADME; details: read-out: CLH
[6] = species: Rattus norvegicus; assay: Toxicity in Zucker diabetic fatty rat assessed as change in plasma insulin level; type: organism-based; details: in vivo
[7] = Oral bioavailability in Sprague-Dawley rat at 10 mg/kg; type: ADME, organism-based; details: in vivo
[8] = test system: Rattus norvegicus; assay: Toxicity in Wistar rat assessed as induction of hypoglycemia at 100 mg/kg, po; type: organism-based; design: dose 100 mg/kg, route oral; details: in vivo
[9] = Cmax in Sprague-Dawley rat at 10 mg/kg, po; type: ADME, organism-based; design: dose 10 mg/kg, route oral; details: in vivo
[10] = test system: Rattus norvegicus; assay: fCmax in Wistar rat at 100 mg/kg, po; type: ADME, organism-based; design: dose 100 mg/kg, route oral; details: in vivo
[11] = molecular target: T2, Glucokinase regulatory protein (Rattus norvegicus, UniProt Q07071); assay: Inhibition of GKRP-GK interaction in rat primary hepatocytes assessed as translocation of GK from nucleus to cytoplasm preincubated for 20 mins followed by glucose addition measured after 40 mins by fluorescence assay; type: cell-based, Hepatocyte
T2 sequence (Q07071 whole entry): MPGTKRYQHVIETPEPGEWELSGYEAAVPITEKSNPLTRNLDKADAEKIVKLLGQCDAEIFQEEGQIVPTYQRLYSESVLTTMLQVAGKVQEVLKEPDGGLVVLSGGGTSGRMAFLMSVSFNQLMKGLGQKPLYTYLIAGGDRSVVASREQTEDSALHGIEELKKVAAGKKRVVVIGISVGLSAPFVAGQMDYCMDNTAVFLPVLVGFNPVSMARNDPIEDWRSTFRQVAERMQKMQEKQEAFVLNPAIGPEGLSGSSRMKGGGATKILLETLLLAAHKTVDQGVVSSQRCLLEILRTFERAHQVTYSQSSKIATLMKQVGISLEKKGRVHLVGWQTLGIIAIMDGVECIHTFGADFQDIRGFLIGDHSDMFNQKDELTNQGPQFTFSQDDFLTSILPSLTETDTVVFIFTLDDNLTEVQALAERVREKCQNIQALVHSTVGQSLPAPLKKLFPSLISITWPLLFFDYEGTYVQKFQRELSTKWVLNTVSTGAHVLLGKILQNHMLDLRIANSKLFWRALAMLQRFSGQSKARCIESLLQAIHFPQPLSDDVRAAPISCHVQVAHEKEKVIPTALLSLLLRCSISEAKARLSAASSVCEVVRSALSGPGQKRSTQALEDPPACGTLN

[12] = Clearance in Sprague-Dawley rat at 2 mg/kg, iv; type: ADME, organism-based; design: dose 2 mg/kg, route intravenous; details: in vivo
[13] = Volume of distribution at steady state in Sprague-Dawley rat at 2 mg/kg, iv; type: ADME, organism-based; design: dose 2 mg/kg, route intravenous; details: in vivo, read-out: Vdss

SMILES: O=S(=O)(c1cccs1)N1CCN(c2ccc(C(O)(C(F)(F)F)C(F)(F)F)cc2)CC1
pEC50 [1]: < 4.30
fraction unbound [3]: 0.0062
clearance [12]: 44 mL/min/kg
Vd [13]: 6.81 L/kg
bioavailability [7]: 28%
Cmax [9]: 350 nM

SMILES: O=S(=O)(c1cccs1)N1CCN(c2ccc(C(O)(C(F)(F)F)C(F)(F)F)cc2)[C@@H](CC2CCOCC2)C1
pEC50 [11]: 5.26

SMILES: O=S(=O)(c1cccs1)N1CCN(c2ccc(C(O)(C(F)(F)F)C(F)(F)F)cc2)[C@@H](CN2CCOCC2)C1
pEC50 [11]: 5.40

SMILES: C[C@H]1COCCN1C[C@H]1CN(S(=O)(=O)c2cccs2)CCN1c1ccc(C(O)(C(F)(F)F)C(F)(F)F)cc1
pEC50 [11]: 5.74

SMILES: C[C@H]1COCCN1C[C@H]1CN(S(=O)(=O)c2cccs2)CCN1c1ccc([C@](C)(O)C(F)(F)F)cc1
pEC50 [11]: 6.66

Further compounds by rising pEC50 [11], results first:

pEC50 [11]: 5.32
SMILES: C[C@](O)(c1ccc(N2CCN(S(=O)(=O)c3cccs3)C[C@@H]2CC2CCOCC2)cc1)C(F)(F)F

pEC50 [11]: 6.05
SMILES: C[C@@](O)(c1ccc(N2CCN(S(=O)(=O)c3cccs3)C[C@@H]2CC2CCOCC2)cc1)C(F)(F)F

pEC50 [1]: < 4.30
fCmax [2]: 0.004 µM
fraction unbound [3]: 0.037
microsomal CLint at 1 µM [5]: 608 µL/min/mg
bioavailability [7]: 7.86%
Cmax [9]: 110 nM
fCmax [10]: 0.056 µM
pEC50 [11]: 7.09
SMILES: C[C@H]1COCCN1C[C@H]1CN(S(=O)(=O)c2cccs2)CCN1c1ccc([C@@](C)(O)C(F)(F)F)cc1
Activity [4]: Non-toxic
Activity [6]: Non-toxic
Activity [8]: Toxic
